The record followed here is ChEMBL document CHEMBL5727558, “Organic compounds” (2020).

Assay [1] addresses Dual specificity calcium/calmodulin-dependent 3',5'-cyclic nucleotide phosphodiesterase 1A (Homo sapiens, UniProt P54750). In words: (§1) Enzyme Assay: Assay: The following phosphodiesterase enzymes may be used: 3′,5′-cyclic-nucleotide-specific bovine brain phosphodiesterase (Sigma, St. Louis, Mo.) (predominantly PDE1B) and recombinant full length human PDE1A and PDE1B (r-hPDE1A and r-hPDE1B respectively) which may be produced e.g., in HEK or SF9 cells by one skilled in the art. The PDE1 enzyme is reconstituted with 50% glycerol to 2.5 U/ml. One unit of enzyme will hydrolyze 1.0 μmole of 3′,5′-cAMP to 5′-AMP per min at pH 7.5 at 30° C. One part enzyme is added to 1999 parts reaction buffer (30 μM CaCl2, 10 U/ml of calmodulin (Sigma P2277), 10 mM Tris-HCl pH 7.2, 10 mM MgCl2, 0.1% BSA, 0.05% NaN3) to yield a final concentration of 1.25 mU/ml. 99 μl of diluted enzyme solution is added into each well in a flat bottom 96-well polystyrene plate to which 1 μl of test compound dissolved in 100% DMSO is added. The compounds are mixed and pre-incubated with the enzyme for 10 min at room temperature.

Assay [2] deals with Dual specificity calcium/calmodulin-dependent 3',5'-cyclic nucleotide phosphodiesterase 1B (Homo sapiens, UniProt Q01064). The description is as §1.
Chain of Dual specificity calcium/calmodulin-dependent 3',5'-cyclic nucleotide phosphodiesterase 1B (Q01064 whole entry): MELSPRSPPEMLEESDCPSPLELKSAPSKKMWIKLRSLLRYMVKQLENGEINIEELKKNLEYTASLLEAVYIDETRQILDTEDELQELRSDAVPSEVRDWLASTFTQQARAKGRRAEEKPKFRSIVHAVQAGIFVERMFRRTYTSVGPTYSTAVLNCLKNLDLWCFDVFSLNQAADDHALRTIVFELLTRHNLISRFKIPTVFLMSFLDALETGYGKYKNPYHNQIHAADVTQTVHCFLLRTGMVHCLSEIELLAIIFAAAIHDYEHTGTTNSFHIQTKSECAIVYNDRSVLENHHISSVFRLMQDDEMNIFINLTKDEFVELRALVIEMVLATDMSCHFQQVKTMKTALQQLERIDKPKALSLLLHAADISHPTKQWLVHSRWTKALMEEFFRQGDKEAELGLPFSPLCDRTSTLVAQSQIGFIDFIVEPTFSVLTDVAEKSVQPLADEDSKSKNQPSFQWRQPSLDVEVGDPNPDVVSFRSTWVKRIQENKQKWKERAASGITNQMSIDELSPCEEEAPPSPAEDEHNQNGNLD

Chain of Dual specificity calcium/calmodulin-dependent 3',5'-cyclic nucleotide phosphodiesterase 1A (P54750 whole entry): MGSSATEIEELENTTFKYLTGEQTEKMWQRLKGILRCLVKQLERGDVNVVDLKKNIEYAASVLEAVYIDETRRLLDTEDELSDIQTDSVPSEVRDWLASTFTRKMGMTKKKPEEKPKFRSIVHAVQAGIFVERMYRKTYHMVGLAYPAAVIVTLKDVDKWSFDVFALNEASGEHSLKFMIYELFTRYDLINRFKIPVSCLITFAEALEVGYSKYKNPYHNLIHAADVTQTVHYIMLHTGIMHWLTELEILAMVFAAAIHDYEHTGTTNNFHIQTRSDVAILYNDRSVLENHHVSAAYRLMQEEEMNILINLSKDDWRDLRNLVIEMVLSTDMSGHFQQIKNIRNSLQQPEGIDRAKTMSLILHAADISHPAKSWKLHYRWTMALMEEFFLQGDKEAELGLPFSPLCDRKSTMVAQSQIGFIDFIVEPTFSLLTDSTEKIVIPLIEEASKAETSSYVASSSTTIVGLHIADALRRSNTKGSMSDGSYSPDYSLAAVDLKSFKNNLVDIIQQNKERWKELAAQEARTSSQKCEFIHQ

Usually IC50 stands for the concentration that inhibits the measured activity by half. With `CC(C)Sc1c2c(nn1Cc1ccc(-c3cccc(F)n3)cc1)N1CC(C)(C)N=C1N(C)C2=O`, the IC50 in assay [1] was found to be 5 nM; in assay [2], 3000 nM.
